Tests used:
[1] = tested on: Chenopodium album; experiment: Upland field foliage treatment (Test Example 1); type: in vivo; settings: foliage treatment 14th day after sowing, wettable powder, 1 kg active ingredient per hectare, evaluated 21st day after application
In short: (§1)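 Foliar spray, 1 kg a.i./ha, wettable powder in water, applied 14 d post-sowing; seeds covered by ~1 cm upland soil. Index scoring at 21 d. Higher index = stronger weed control; for crops, lower index = greater safety.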

[2] = tested on: Digitaria adscendens; experiment: Upland field foliage treatment (Test Example 1); type: in vivo; settings: foliage treatment 14th day after sowing, wettable powder, 1 kg active ingredient per hectare, evaluated 21st day after application
In short: as §1

[3] = tested on: Setaria viridis; experiment: Upland field foliage treatment (Test Example 1); type: in vivo; settings: foliage treatment 14th day after sowing, wettable powder, 1 kg active ingredient per hectare, evaluated 21st day after application
In short: as §1

[4] = tested on: Stellaria media; experiment: Upland field foliage treatment (Test Example 1); type: in vivo; settings: foliage treatment 14th day after sowing, wettable powder, 1 kg active ingredient per hectare, evaluated 21st day after application
In short: as §1

[5] = tested on: soybean (Glycine max); experiment: Upland field foliage treatment (Test Example 1), crop; type: in vivo; settings: foliage treatment 14th day after sowing, 1 kg active ingredient per hectare, evaluated 21st day, lower index = higher safety
In short: as §1

[6] = tested on: wheat (Triticum aestivum); experiment: as above; type: in vivo; settings: foliage treatment 14th day after sowing, 1 kg active ingredient per hectare, evaluated 21st day, lower index = higher safety
In short: as §1

[7] = tested on: Chenopodium album; experiment: Upland soil treatment (Test Example 2); type: in vivo; settings: soil surface treatment next day after sowing, wettable powder, 1 kg active ingredient per hectare, evaluated 21st day after application
In short: (§2)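 Scores were assigned 21 days after treatment on an index where higher means stronger weed control and, for crops, lower means greater safety. A wettable-powder formulation at 1 kg a.i./ha was applied to the soil surface one day after sowing seeds under about 1 cm of upland soil.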

[8] = tested on: Digitaria adscendens; experiment: Upland soil treatment (Test Example 2); type: in vivo; settings: soil surface treatment next day after sowing, wettable powder, 1 kg active ingredient per hectare, evaluated 21st day after application
In short: as §2

[9] = tested on: Setaria viridis; experiment: Upland soil treatment (Test Example 2); type: in vivo; settings: soil surface treatment next day after sowing, wettable powder, 1 kg active ingredient per hectare, evaluated 21st day after application
In short: as §2

[10] = tested on: Stellaria media; experiment: Upland soil treatment (Test Example 2); type: in vivo; settings: soil surface treatment next day after sowing, wettable powder, 1 kg active ingredient per hectare, evaluated 21st day after application
In short: as §2

[11] = tested on: soybean (Glycine max); experiment: Upland soil treatment (Test Example 2), crop; type: in vivo; settings: soil surface treatment next day after sowing, 1 kg active ingredient per hectare, evaluated 21st day, lower index = higher safety
In short: as §2

[12] = tested on: wheat (Triticum aestivum); experiment: Upland soil treatment (Test Example 2), crop; type: in vivo; settings: soil surface treatment next day after sowing, 1 kg active ingredient per hectare, evaluated 21st day, lower index = higher safety
In short: as §2

[13] = tested on: Echinochloa spp.; experiment: Paddy field treatment (Test Example 3); type: in vivo, Echinochloa crusgalli; settings: paddy pot, submerged 4 cm, dropped on water surface 10th day after transplantation, 1 kg active ingredient per hectare, evaluated 21st day
In short: (§3)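 Paddy soil in pots was puddled and flooded to 4 cm, weeds were sown, and two-leaf Koshihikari rice was transplanted at 3 cm depth. Ten days after transplanting, wettable powder was applied onto the water surface at 1 kg active ingredient per hectare. Herbicidal effect was index-scored 21 days later.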

[14] = tested on: Ammannia multiflora; experiment: Paddy field treatment (Test Example 3); type: in vivo; settings: paddy pot, submerged 4 cm, dropped on water surface 10th day after transplantation, 1 kg active ingredient per hectare, evaluated 21st day
In short: as §3

[15] = tested on: Monochoria vaginalis; experiment: Paddy field treatment (Test Example 3); type: in vivo; settings: paddy pot, submerged 4 cm, dropped on water surface 10th day after transplantation, 1 kg active ingredient per hectare, evaluated 21st day
In short: as §3

[16] = tested on: Scirpus juncoides; experiment: Paddy field treatment (Test Example 3); type: in vivo; settings: paddy pot, submerged 4 cm, dropped on water surface 10th day after transplantation, 1 kg active ingredient per hectare, evaluated 21st day
In short: as §3

[17] = tested on: rice (Oryza sative, variety: Koshihikari); experiment: Paddy field treatment (Test Example 3), crop; type: in vivo, Oryza sativa; settings: transplanted rice two-leaf period, water surface treatment 10th day after transplantation, 1 kg active ingredient per hectare, evaluated 21st day, lower index = higher safety
In short: as §3

Row | Compound | Herbicidal activity Chenopodium album [1] | Herbicidal activity Digitaria adscendens [2] | Herbicidal activity Setaria viridis [3] | Herbicidal activity Stellaria media [4] | Herbicidal activity Glycine max [5] | Herbicidal activity Triticum aestivum [6] | Herbicidal activity Chenopodium album [7] | Herbicidal activity Digitaria adscendens [8] | Herbicidal activity Setaria viridis [9] | Herbicidal activity Stellaria media [10] | Herbicidal activity Glycine max [11] | Herbicidal activity Triticum aestivum [12] | Herbicidal activity Echinochloa spp. [13] | Herbicidal activity Ammannia multiflora [14] | Herbicidal activity Monochoria vaginalis [15] | Herbicidal activity Scirpus juncoides [16] | Herbicidal activity Oryza sativa [17]
1 | CCCc1c(Cl)c(-c2cccc(Cl)c2)nn1CC(=COC)C(=O)OC [Compound 40] | 4 (herbicidal effect of not less than 70% by weight and less than 90% by weight) | 4 (herbicidal effect of not less than 70% by weight and less than 90% by weight) | 4 (herbicidal effect of not less than 70% by weight and less than 90% by weight) | 4 (herbicidal effect of not less than 70% by weight and less than 90% by weight) | 0 (herbicidal effect of not less than 0% by weight and less than 10% by weight) | 0 (herbicidal effect of not less than 0% by weight and less than 10% by weight) | 4 (herbicidal effect of not less than 70% by weight and less than 90% by weight) | 4 (herbicidal effect of not less than 70% by weight and less than 90% by weight) | 4 (herbicidal effect of not less than 70% by weight and less than 90% by weight) | 4 (herbicidal effect of not less than 70% by weight and less than 90% by weight) | 0 (herbicidal effect of not less than 0% by weight and less than 10% by weight) | 0 (herbicidal effect of not less than 0% by weight and less than 10% by weight) | 3 (herbicidal effect of not less than 50% by weight and less than 70% by weight) | 3 (herbicidal effect of not less than 50% by weight and less than 70% by weight) | 3 (herbicidal effect of not less than 50% by weight and less than 70% by weight) | 3 (herbicidal effect of not less than 50% by weight and less than 70% by weight) | 0 (herbicidal effect of not less than 0% by weight and less than 10% by weight)
2 | COC=C(Cn1nc(-c2ccccc2)c(Cl)c1SC)C(=O)OC [Compound 41] | 4 (herbicidal effect of not less than 70% by weight and less than 90% by weight) | 4 (herbicidal effect of not less than 70% by weight and less than 90% by weight) | 4 (herbicidal effect of not less than 70% by weight and less than 90% by weight) | 4 (herbicidal effect of not less than 70% by weight and less than 90% by weight) | 0 (herbicidal effect of not less than 0% by weight and less than 10% by weight) | 0 (herbicidal effect of not less than 0% by weight and less than 10% by weight) | 4 (herbicidal effect of not less than 70% by weight and less than 90% by weight) | 4 (herbicidal effect of not less than 70% by weight and less than 90% by weight) | 4 (herbicidal effect of not less than 70% by weight and less than 90% by weight) | 4 (herbicidal effect of not less than 70% by weight and less than 90% by weight) | 0 (herbicidal effect of not less than 0% by weight and less than 10% by weight) | 0 (herbicidal effect of not less than 0% by weight and less than 10% by weight) | 4 (herbicidal effect of not less than 70% by weight and less than 90% by weight) | 3 (herbicidal effect of not less than 50% by weight and less than 70% by weight) | 3 (herbicidal effect of not less than 50% by weight and less than 70% by weight) | 3 (herbicidal effect of not less than 50% by weight and less than 70% by weight) | 0 (herbicidal effect of not less than 0% by weight and less than 10% by weight)
3 | COC=C(Cn1nc(-c2cccc(Cl)c2)c(Cl)c1SC)C(=O)OC [Compound 42] | 4 (herbicidal effect of not less than 70% by weight and less than 90% by weight) | 4 (herbicidal effect of not less than 70% by weight and less than 90% by weight) | 4 (herbicidal effect of not less than 70% by weight and less than 90% by weight) | 4 (herbicidal effect of not less than 70% by weight and less than 90% by weight) | 0 (herbicidal effect of not less than 0% by weight and less than 10% by weight) | 0 (herbicidal effect of not less than 0% by weight and less than 10% by weight) | 4 (herbicidal effect of not less than 70% by weight and less than 90% by weight) | 4 (herbicidal effect of not less than 70% by weight and less than 90% by weight) | 4 (herbicidal effect of not less than 70% by weight and less than 90% by weight) | 4 (herbicidal effect of not less than 70% by weight and less than 90% by weight) | 0 (herbicidal effect of not less than 0% by weight and less than 10% by weight) | 0 (herbicidal effect of not less than 0% by weight and less than 10% by weight) | 3 (herbicidal effect of not less than 50% by weight and less than 70% by weight) | 3 (herbicidal effect of not less than 50% by weight and less than 70% by weight) | 3 (herbicidal effect of not less than 50% by weight and less than 70% by weight) | 3 (herbicidal effect of not less than 50% by weight and less than 70% by weight) | 0 (herbicidal effect of not less than 0% by weight and less than 10% by weight)
4 | CCc1c(Br)c(-c2ccccc2)nn1CC(=COC)C(=O)OC [Compound 43] | 5 (herbicidal effect of not less than 90% by weight) | 4 (herbicidal effect of not less than 70% by weight and less than 90% by weight) | 4 (herbicidal effect of not less than 70% by weight and less than 90% by weight) | 5 (herbicidal effect of not less than 90% by weight) | 0 (herbicidal effect of not less than 0% by weight and less than 10% by weight) | 0 (herbicidal effect of not less than 0% by weight and less than 10% by weight) | 4 (herbicidal effect of not less than 70% by weight and less than 90% by weight) | 4 (herbicidal effect of not less than 70% by weight and less than 90% by weight) | 4 (herbicidal effect of not less than 70% by weight and less than 90% by weight) | 4 (herbicidal effect of not less than 70% by weight and less than 90% by weight) | 0 (herbicidal effect of not less than 0% by weight and less than 10% by weight) | 0 (herbicidal effect of not less than 0% by weight and less than 10% by weight) | 3 (herbicidal effect of not less than 50% by weight and less than 70% by weight) | 3 (herbicidal effect of not less than 50% by weight and less than 70% by weight) | 3 (herbicidal effect of not less than 50% by weight and less than 70% by weight) | 4 (herbicidal effect of not less than 70% by weight and less than 90% by weight) | 0 (herbicidal effect of not less than 0% by weight and less than 10% by weight)

— patent US6809065B2, “Herbicide containing substituted pyrazole derivative as active ingredient” (SDS Biotech K.K., priority 2001, dated 2004)
